Laboratory results as given in US20180163180A1, “METHOD OF ENHANCING SOMATIC CELL REPROGRAMMING WITH THE ACETYLLYSINE READER BRD3R” (THE UAB RESEARCH FOUNDATION, INC ., priority 2015, published 2018).

How the values were obtained:
[1] = system: BJ cells; assay: Reprogramming of human fibroblasts scored by TRA-1-60+ colonies/clusters; type: cell-based
Experimental: Briefly (FIG. 1A), 2×10^4 of BJ cells were seeded in each well of a 24-well plates. The second day, fibroblasts were transduced with OCT4 (10 MOI), SOX2 (5 MOI), KLF4 (5 MOI) along with 250 μl of individual kinase viral supernatant freshly packaged in one well of a 6-well plate. Twenty-two cDNAs were evaluated in one 24-well plate. One well is OSK control, and one well of cells is transduced with OSK plus 250 μl of GFP viral supernatant as a second control. Virus was removed next day with fresh fibroblast medium. Forty-eight hours after transduction, fibroblasts were transferred from one well into a 60-mm dish for continued reprogramming. The next day of re-seeding, fibroblast medium was replaced with E7 medium (E8 minus TGF beta) plus 100 μM of sodium butyrate. From day 18 of reprogramming on, E8 media was used. On day 25 of reprogramming, reprogramming dishes were stained for ALP or TRA-1-60 markers.
• Concentration of virus: The reprogramming viruses (OCT4, SOX2, KLF4, MYC and BET members) were concentrated before use except for library viruses. The lentiviral supernatant was centrifuged at 3,000×g for 10 mins at 4° C. to remove the cell debris. Thirty ml of the viral supernatant was then transferred into each 50-ml tube. 7 ml of 50% PEG-6000 stock solution (final concentration of 8.5%) and 4.1 ml of 4 M NaCl stock solution was added to each tube (final concentration of 0.4 M). The virus mixture was stored at 4° C. for 3-5 h.
• Cell culture and reprogramming: Human fibroblast cells (BJ ATCC CRL-2522®) were cultured in fibroblast medium: DMEM, 10% heat-inactivated FBS, 0.1 mM 2-mercaptoethanol, 100 U/ml penicillin, 100 μg/ml streptomycin, 0.1 mM MEM NEAA and 4 ng/ml human bFGF. For reprogramming, seed BJ cells into 24-well plate at 2×10^4 cells/well. Twenty-four hours after plating, pre-mix the OSK (OCT4, 10 MOI; SOX2, 5 MOI and KLF4, 5 MOI) viruses (shown in FIGS. 6B-6D, SEQ ID NO: 58-60, respectively), and add the OSK virus along with 250 μl supernatant of individual kinase virus into respective wells. Incubate overnight. Next morning, remove viruses by replacing virus-containing medium with fresh fibroblast medium. Twenty-four hours after transduction, the cells were re-seeded from one well into one matrigel-coated 60-mm dish. Next day, replace fibroblast medium with reprogramming media (E7 plus sodium butyrate at 100 μM). On 18 day, start to use E8 media. On day 25 of reprogramming, stain the reprogramming cells for alkaline phosphatase or TRA-1-60.

[2] = system: reprogramming cells; assay: Mitotic shake-off of reprogramming cells; type: cell-based, human; conditions: day-4 reprogramming cells
Experimental: • Mitotic shake-off: Reprogramming cells were prepared in T75 flasks. On day 4 of reprogramming, 1 h before mitotic shake-off, replace spent media with fresh reprogramming media. Shake the flasks at 200 rpm for 1 min and collect the media containing the shake-off mitotic cells. Add new warmed media and incubate for 10 min. Repeat these shake-off collection 2 more times. Pool the cells and centrifuge at 1,000×g for 5 min. Count the cells collected.

[3] = system: reprogramming BJ cells; assay: RNA sequencing of cells on day 3 of reprogramming; type: cell-based, human
Experimental: • RNA sequencing: mRNA sequencing was performed on the Illumina HiSeq2500 using the sequencing reagents and flow cells providing up to 300 Gb of sequence information per flow cell. Briefly, the quality of the total RNA was assessed using the Agilent 2100 Bioanalyzer followed by 2 rounds of polyA+ selection and conversion to cDNA. The stranded mRNA library generation kits were used per manufacturer's instructions (Agilent, Santa Clara, Calif.). Library construction consists of random fragmentation of the polyA mRNA, followed by cDNA production using random primers with inclusion of Actinomycin D in the first strand reaction. The ends of the cDNA are repaired, polyA-tailed and adaptors ligated for indexing (4 different barcodes per lane) during the sequencing runs. The cDNA libraries were quantitated using qPCR in a Roche LightCycler 480 with the Kapa Biosystems kit for library quantitation (Kapa Biosystems, Woburn, Mass.) prior to cluster generation. Clusters were generated to yield approximately 725 K to 825 K clusters/mm^2. Cluster density and quality were determined during the run after the first base addition parameters were assessed. Paired end 2×50 bp sequencing runs were run to align the cDNA sequences to the reference genome.
• Bioinformatics: 25-65 million of paired 51 bp reads were obtained for each sample. RNA sequencing reads were mapped to the human reference genome (GRCh37/hg19) using TopHat (v2.0.13) (Kim et al., (2013) Genome Biol. 14: R36). For more accurate mapping, the mean insert sizes and the standard deviations were calculated using Picard-tools (v1.126), and were passed to the mapper along with a Gene Transfer File (GTF version GRCh37.70) and the data were re-aligned. Read count tables were generated using HT-seq (v0.6.0) (Anders et al., (2015) Bioinformatics 31: 166-169). Deferential Expression (DE) analysis was performed using DESeq (v3.0) (Anders & Huber (2010) Genome Biol. 11: R106). Cufflinks v2.2.1 (Trapnell et al., (2010) Nat. Biotechnol. 28: 511-515) and Cummerbund v3.0 (Goff et al., (2014): Visualization and Exploration of Cufflinks High-throughput Sequencing Data., pp. 45) were also used for calculating expression levels in FPKM and data visualization. The BigWig files were generated using Bedtools (v2.17.0) (Quinlan & Hall (2010) Bioinformatics 26: 841-842) and bedGraphToBigWig tool (v4). For the analysis of micro-array data, Limma v3.0 (Smyth G. K., (2005) in Bioinformatics and Computational Biology Solutions Using R and Bioconductor: Gentleman et al., Eds. (Springer: New York): Ch. 23: pp. 397-420) was used Gene Ontology (GO) analysis was conducted using PANTHER (Mi et al., (2013) Nat. Protoc. 8: 1551-1566), Cytoscape-BiNGO (Saito et al., (2012) Nat. Methods 9: 1069-1076) and DAVID (Huang da et al., (2009) Nat. Protoc. 4: 44-57). Lists of mitotic genes were compiled based on the results from the three tools.

BRD3R: BRD3 with Reprogramming activity; 556 aa isoform of human BRD3 (AAH32124, SEQ ID NO: 47), encoded by cDNA L61
appearance of abundant TRA-1-60+ clusters ([1]; combined with 3F (OCT4, SOX2, KLF4), controls infrequent before day 10): 6 days
reprogramming activity (TRA-1-60+ colonies) ([1]; used with 3F in BJ cells, compared to OSK-GFP control): more TRA-1-60^+ colonies
mitotic cells collected compared to controls [2]: 2.43 ×
expression of CDKN2A, CDKN2B, CDKN1A, TP53 (p53-p21 pathway) ([3]; BRD3R reprogramming cells): Downregulation was not seen
AFC of CEP78 ([3]; day 3 of reprogramming): 0.94 ×
AFC of ERG ([3]; day 3 of reprogramming): 0.84 ×
AFC of PSMB9 ([3]; day 3 of reprogramming): 0.87 ×
number of upregulated genes in the mitotic category ([3]; of 335 GO mapped genes, day 3): 128 genes
AFC of the 23 always upregulated mitotic genes ([3]; p<0.05, day 3): at least 2.24 ×
total mitotic genes statistically upregulated in at least one comparison ([3]; ≥1.5×, p<0.05, 4 IFC and 1 AFC comparisons, day 3): 185 genes
number of genes upregulated in BRD3R-expressing cells ([3]; ≥1.7×, p<0.05, ADNRC≥50, day 3): 401 genes
